Measured values as given in patent US9255295B2, “Method for evaluating the sensitizing potential of a test compound” (IMMUNOSEARCH, priority 2010, dated 2016).
Read-outs that look alike come from different tables or passages of the source.

Tested on: ARE gene family (AKR1B10, AKR1C1, AKR1C2, CYP1B1, FTH1P, FTL, G6PD, GCLM, NQO2, SLC7A11, TXNRD1, UGT1A1, UGT1A9, YWHAZ, CD36, CYP1A1, GCLC, HMOX1, NQO1, PSME2 …)

In the case of `O=CC=O` [Glyoxal], the “AHR NUMBER OF GENES grade” value (0.1%) is reported as 0 (if this expression is lower, the grade is 0), the “AKR1B10 NUMBER OF GENES grade” value (0.1%) is reported as 0 (if this expression is lower, the grade is 0) and the “AKR1C1 NUMBER OF GENES grade” value (0.1%) is reported as 0 (if this expression is lower, the grade is 0). For the same molecule, the “AKR1C2 NUMBER OF GENES grade” value (0.1%) was 0 (if this expression is lower, the grade is 0), the “ARE >1.3 (number of genes)” value (0.1%) was 0 and the “CD36 NUMBER OF GENES grade” value (0.1%) was 0 (if this expression is lower, the grade is 0). For the same molecule, the “CYP1A1 NUMBER OF GENES grade” value (0.1%) was 0 (if this expression is lower, the grade is 0), the “CYP1B1 NUMBER OF GENES grade” value (0.1%) was 0 (if this expression is lower, the grade is 0) and the “FTH1P NUMBER OF GENES grade” value (0.1%) was 0 (if this expression is lower, the grade is 0). The “FTL NUMBER OF GENES grade” value (0.1%) was 0 (if this expression is lower, the grade is 0), the “GCLC NUMBER OF GENES grade” value (0.1%) was 0 (if this expression is lower, the grade is 0) and the “GCLM NUMBER OF GENES grade” value (0.1%) was 0 (if this expression is lower, the grade is 0). The “HMOX1 NUMBER OF GENES grade” value (0.1%) was 0 (if this expression is lower, the grade is 0), the “NQO1 NUMBER OF GENES grade” value (0.1%) was 0 (if this expression is lower, the grade is 0) and the “NQO2 NUMBER OF GENES grade” value (0.1%) was 0 (if this expression is lower, the grade is 0). The “S100A8 NUMBER OF GENES grade” value (0.1%) was 0 (if this expression is lower, the grade is 0), the “SLC7A11 NUMBER OF GENES grade” value (0.1%) was 0 (if this expression is lower, the grade is 0) and the “TOTAL ARE (number of genes)” value (0.1%) was 0. The “TXNRD1 NUMBER OF GENES grade” value (0.1%) was 0 (if this expression is lower, the grade is 0), the “UGT1A1 NUMBER OF GENES grade” value (0.1%) was 0 (if this expression is lower, the grade is 0) and the “UGT1A9 NUMBER OF GENES grade” value (0.1%) was 0 (if this expression is lower, the grade is 0). The AHR expression (0.1%, compared to the control) was 0.9, the AKR1B10 expression (0.1%, compared to the control) was 0.6 and the AKR1C1 expression (0.1%, compared to the control) was 0.8. For the same molecule, the AKR1C2 expression (0.1%, compared to the control) was 0.8, the CD36 expression (0.1%, compared to the control) was 1.1 and the CYP1A1 expression (0.1%, compared to the control) was 0.6. The CYP1B1 expression (0.1%, compared to the control) was 0.6, the FTH1P expression (0.1%, compared to the control) was 0.9 and the FTL expression (0.1%, compared to the control) was 1.0. For the same molecule, the GCLC expression (0.1%, compared to the control) was 1.0, the GCLM expression (0.1%, compared to the control) was 0.9 and the HMOX1 expression (0.1%, compared to the control) was 1.0. It also gave an NQO1 expression (0.1%, compared to the control) of 1.0, an NQO2 expression (0.1%, compared to the control) of 0.8 and an S100A8 expression (0.1%, compared to the control) of 0.7. The SLC7A11 expression (0.1%, compared to the control) was 1.0, the TXNRD1 expression (0.1%, compared to the control) was 1.0 and the UGT1A1 expression (0.1%, compared to the control) was 0.9. The UGT1A9 expression (0.1%, compared to the control) was 0.3, the “AHR NUMBER OF GENES grade” value (1%) was 0 (if this expression is lower, the grade is 0) and the “AKR1B10 NUMBER OF GENES grade” value (1%) was 0 (if this expression is lower, the grade is 0). For the same molecule, the “AKR1C1 NUMBER OF GENES grade” value (1%) was 0 (if this expression is lower, the grade is 0), the “AKR1C2 NUMBER OF GENES grade” value (1%) was 0 (if this expression is lower, the grade is 0) and the “ARE >1.3 (number of genes)” value (1%) was 1. For the same molecule, the “CD36 expression compared to control” value (1%) was 1.1, the “CD36 grade (NUMBER OF GENES)” value (1%) was 0 (if this expression is lower, the grade is 0) and the “CYP1A1 NUMBER OF GENES grade” value (1%) was 0 (if this expression is lower, the grade is 0). For the same molecule, the “CYP1B1 NUMBER OF GENES grade” value (1%) was 0 (if this expression is lower, the grade is 0), the “FTH1P NUMBER OF GENES grade” value (1%) was 0 (if this expression is lower, the grade is 0) and the “FTL NUMBER OF GENES grade” value (1%) was 0 (if this expression is lower, the grade is 0). The “GCLC NUMBER OF GENES grade” value (1%) was 0 (if this expression is lower, the grade is 0), the “GCLM NUMBER OF GENES grade” value (1%) was 0 (if this expression is lower, the grade is 0) and the “HMOX1 NUMBER OF GENES grade” value (1%) was 0 (if this expression is lower, the grade is 0). For the same molecule, the “NQO1 NUMBER OF GENES grade” value (1%) was 0 (if this expression is lower, the grade is 0), the “NQO2 NUMBER OF GENES grade” value (1%) was 0 (if this expression is lower, the grade is 0) and the “S100A8 expression compared to control” value (1%) was 0.9. The “S100A8 grade (NUMBER OF GENES)” value (1%) was 0 (if this expression is lower, the grade is 0), the “SLC7A11 NUMBER OF GENES grade” value (1%) was 1 (If the expression is greater than 1.3 compared to the control, a grade of 11s given) and the “TOTAL ARE (number of genes)” value (1%) was 1. For the same molecule, the “TXNRD1 NUMBER OF GENES grade” value (1%) was 0 (if this expression is lower, the grade is 0), the “UGT1A1 NUMBER OF GENES grade” value (1%) was 0 (if this expression is lower, the grade is 0) and the “UGT1A9 NUMBER OF GENES grade” value (1%) was 0 (if this expression is lower, the grade is 0). The AHR expression (1%, compared to the control) was 1.1, the AKR1B10 expression (1%, compared to the control) was 1.1 and the AKR1C1 expression (1%, compared to the control) was 1.0. For the same molecule, the AKR1C2 expression (1%, compared to the control) was 1.0, the CYP1A1 expression (1%, compared to the control) was 0.9 and the CYP1B1 expression (1%, compared to the control) was 1.1. For the same molecule, the FTH1P expression (1%, compared to the control) was 1.0, the FTL expression (1%, compared to the control) was 1.1 and the GCLC expression (1%, compared to the control) was 1.1. The GCLM expression (1%, compared to the control) was 0.9, the HMOX1 expression (1%, compared to the control) was 0.9 and the NQO1 expression (1%, compared to the control) was 1.1. For the same molecule, the NQO2 expression (1%, compared to the control) was 1.0, the SLC7A11 expression (1%, compared to the control) was 1.4 and the TXNRD1 expression (1%, compared to the control) was 0.9. The UGT1A1 expression (1%, compared to the control) was 1.2, the UGT1A9 expression (1%, compared to the control) was 0.6 and the “AHR NUMBER OF GENES grade” value (10%) was 0 (if this expression is lower, the grade is 0). The “AKR1B10 NUMBER OF GENES grade” value (10%) was 0 (if this expression is lower, the grade is 0).
